# Structures can show the parent of a compound that is named as a salt.
# Molecular target: T1, human vasopressin V1b receptor (Homo sapiens, UniProt P47901)
# T1 construct: expressed in transfected cells; host or cells: CHO-K1 (cell line hV1b_3H2_CHO), membrane preparation
# T1 sequence (P47901 1-424): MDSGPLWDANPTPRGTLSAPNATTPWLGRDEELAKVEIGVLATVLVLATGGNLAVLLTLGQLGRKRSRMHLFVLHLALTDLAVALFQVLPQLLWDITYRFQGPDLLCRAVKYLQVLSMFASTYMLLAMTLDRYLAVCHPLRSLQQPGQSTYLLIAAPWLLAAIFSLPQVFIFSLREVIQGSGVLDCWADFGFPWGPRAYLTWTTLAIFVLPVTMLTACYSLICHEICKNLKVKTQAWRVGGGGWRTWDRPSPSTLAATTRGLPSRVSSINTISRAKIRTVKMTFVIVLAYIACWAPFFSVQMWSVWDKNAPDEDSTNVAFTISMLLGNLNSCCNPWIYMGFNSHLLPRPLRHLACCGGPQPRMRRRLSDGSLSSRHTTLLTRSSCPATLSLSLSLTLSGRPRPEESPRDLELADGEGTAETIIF
# Assay: Vasopressin V1b receptor binding test
# Conditions: membranes of CHO-K1 cells, displacement of 1.5 nM 3H-AVP
# Procedure: • Vasopressin V1b Receptor Binding Test: • Substances:
# The test substances were dissolved at a concentration of 10^−2 M in DMSO and diluted further in DMSO to 5×10^−4 M to 5×10^−9 M. These DMSO solutions were diluted 1:10 with test buffer. The concentration of substance was again diluted 1:5 in the test preparation.
# The membrane pellet was homogenized and centrifuged again as described, and then taken up in 50 mM Tris-HCl, pH 7.4, homogenized and, frozen in aliquots, stored at −190° C. in liquid nitrogen.
# The incubation buffer was: 50 mM Tris, 10 mM MgCl2, 0.1% BSA, pH 7.4. […] The nonspecific binding was determined with 1 μM AVP (Bachem #H1780). All determinations were performed in triplicate. After incubation (60 minutes at room temperature), the free radioligand was filtered off by vacuum filtration (Skatron cell harvester 7000) on Whatman GF/B glass-fibre filter mats and the filters were transferred to scintillation vessels. Liquid scintillation measurement was performed in a Tricarb instrument, Model 2000 or 2200CA (Packard). Conversion of the measured cpm to dpm was performed with the aid of a standard quench series.
# The binding parameters were calculated by nonlinear regression in SAS.
# For the compounds according to the invention, the affinities for the human vasopressin receptor V1b were measured according to the above test and the affinity constant (Ki) was determined.
row,SMILES,Ki [nM]
1,"CCOc1ccccc1C1(N2CCN(c3ccncc3)CC2)C(=O)N(S(=O)(=O)c2ccc(OC(F)F)cc2)c2ccc(C#N)cc21 (racemic) [Example 87, (±)-5-Cyano-1-(4-difluoromethoxy-benzenesulphonyl)-3-(2-ethoxyphenyl)-3-(4-pyridin-4-yl-piperazin-1-yl)-2,3-dihydro-1H-indol-2-one]",50 to 500
2,"COc1ccc(S(=O)(=O)N2C(=O)C(c3cc(CN(C)C)ccc3OC)(N3CCN(c4ccncc4)CC3)c3cc(Cl)ccc32)c(OC)c1 (centres unmarked) [Example 25, 5-Chloro-1-(2,4-dimethoxy-benzenesulphonyl)-3-(5-dimethylaminomethyl-2-methoxyphenyl)-3-(4-pyridin-4-yl-piperazin-1-yl)-1,3-dihydro-indol-2-one]",50 to 500
3,"CCOc1ccccc1C1(N2CCN(c3ccncc3)CC2)C(=O)N(S(=O)(=O)c2ccccc2OC)c2ccc(C#N)cc21 (centres unmarked) [Example 8, 5-Cyano-3-(2-ethoxyphenyl)-1-(2-methoxy-benzenesulphonyl)-3-(4-pyridin-4-yl-piperazin-1-yl)-2,3-dihydro-1H-indol-2-one]",50 to 500
4,"CCOc1ccc(OC)cc1C1(N2CCN(c3ccncc3)CC2)C(=O)N(S(=O)(=O)c2ccc(OC)cc2)c2ccc(C#N)cc21 (centres unmarked) [Example 62, 5-Cyano-3-(2-ethoxy-5-methoxyphenyl)-1-(4-methoxy-benzenesulphonyl)-3-(4-pyridin-4-yl-piperazin-1-yl)-2,3-dihydro-1H-indol-2-one]",< 50
5,"CCOc1ccccc1C1(N2CCN(c3ccncc3)CC2)C(=O)N(S(=O)(=O)c2ccc(C#N)cc2F)c2ccc(C#N)cc21 (racemic) [Example 68, (±)-5-Cyano-1-(4-cyano-2-fluoro-benzenesulphonyl)-3-(2-ethoxyphenyl)-3-(4-pyridin-4-yl-piperazin-1-yl)-2,3-dihydro-1H-indol-2-one]",50 to 500
6,"COc1ccc(S(=O)(=O)N2C(=O)C(c3ccccc3OC)(N3CCN(c4ccncc4)CC3)c3cc(Cl)ccc32)c(OC)c1 (centres unmarked) [Example 3, 5-Chloro-1-(2,4-dimethoxy-benzenesulphonyl)-3-(2-methoxyphenyl)-3-(4-pyridin-4-yl-piperazin-1-yl)-1,3-dihydro-indol-2-one]",< 50
7,"COc1ccc(S(=O)(=O)N2C(=O)C(c3ccccc3OC)(N3CCN(c4ccncc4)CC3)c3cc(C#N)ccc32)c(OC)c1 (centres unmarked) [Example 26, 5-Cyano-1-(2,4-dimethoxy-benzenesulphonyl)-3-(2-methoxyphenyl)-3-(4-pyridin-4-yl-piperazin-1-yl)-2,3-dihydro-1H-indol-2-one]",50 to 500
8,"CCOc1ccccc1C1(N2CCN(c3ccncc3)CC2)C(=O)N(S(=O)(=O)c2ccc(C)cc2OC)c2ccc(C#N)cc21 (centres unmarked) [Example 9, 5-Cyano-3-(2-ethoxyphenyl)-1-(2-methoxy-4-methyl-benzenesulphonyl)-3-(4-pyridin-4-yl-piperazin-1-yl)-2,3-dihydro-1 H-indol-2-one]",50 to 500
9,"CCOc1ccccc1C1(N2CCN(c3ccncc3)CC2)C(=O)N(S(=O)(=O)c2ccc(C)cc2)c2ccc(C#N)cc21 (racemic) [Example 85, (±)-5-Cyano-3-(2-ethoxyphenyl)-3-(4-pyridin-4-yl-piperazin-1-yl)-1-(toluene-4-sulphonyl)-2,3-dihydro-1H-indol-2-one]",50 to 500
10,"CCOc1cc(OC)ccc1C1(N2CCN(c3ccnc(C(C)C)c3)CC2)C(=O)N(S(=O)(=O)c2ccc(OC)cc2OC)c2ccc(C#N)cc21 (centres unmarked) [Example 111, 5-Cyano-1-(2,4-dimethoxybenzenesulphonyl)-3-(2-ethoxy-4-methoxyphenyl)-3-[4-(2-isopropylpyridin-4-yl)-piperazin-1-yl]-2,3-dihydro-1H-indol-2-one×trifluoroacetic acid]",< 50
11,"CCOc1ccc(C)cc1C1(N2CCN(c3ccncc3)CC2)C(=O)N(S(=O)(=O)c2ccc(OC)cc2OC)c2ccc(C#N)cc21 (racemic) [Example 101, (±)-5-Cyano-1-(2,4-dimethoxy-benzenesulphonyl)-3-(2-ethoxy-5-methylphenyl)-3-(4-pyridin-4-yl-piperazin-1-yl)-2,3-dihydro-1H-indol-2-one]",< 50
12,"CCOc1ccc(OC)cc1C1(N2C[C@@H]3C[C@H]2CN3c2ccncc2)C(=O)N(S(=O)(=O)c2ccc(OC)cc2OC)c2ccc(C#N)cc21 (stereo partly drawn) [Example 52, 5-Cyano-1-(2,4-dimethoxy-benzenesulphonyl)-3-(2-ethoxy-5-methoxyphenyl)-3-((1S,4S)-5-pyridin-4-yl-2,5-diaza-bicyclo[2.2.1]hept-2-yl)-2,3-dihydro-1H-indol-2-one]",< 50
13,"COc1ccccc1C1(N2CCN(c3ccncc3)CC2)C(=O)N(S(=O)(=O)c2ccc(C#N)cc2)c2ccc(Cl)cc21 (centres unmarked) [Example 4, 4-[5-Chloro-3-(2-methoxyphenyl)-2-oxo-3-(4-pyridin-4-yl-piperazin-1-yl)-2,3-dihydro-indole-1-sulphonyl]-benzonitrile]",50 to 500
14,"CCOc1ccc(CC)cc1C1(N2CCN(c3ccnc(C(C)C)c3)CC2)C(=O)N(S(=O)(=O)c2ccc(OC)cc2OC)c2ccc(C#N)cc21 (racemic) [Example 105, (±)-5-Cyano-1-(2,4-dimethoxy-benzenesulphonyl)-3-(2-ethoxy-5-ethyl-phenyl)-3-[4-(2-isopropyl-pyridin-4-yl)-piperazin-1-yl]-2,3-dihydro-1H-indol-2-one]",< 50

# Second part, the compound after the results:
row,Ki [nM],SMILES
1,50 to 500,"CCOc1ccccc1C1(N2CCN(c3ccncc3)CC2)C(=O)N(S(=O)(=O)c2ccc(C#N)cc2)c2ccc(C#N)cc21 (centres unmarked) [Example 7, 5-Cyano-1-(4-cyano-benzenesulphonyl)-3-(2-ethoxyphenyl)-3-(4-pyridin-4-yl-piperazin-1-yl)-2,3-dihydro-1H-indol-2-one]"
2,50 to 500,"CCOc1ccccc1C1(N2CCN(c3ccncc3)CC2)C(=O)N(S(=O)(=O)c2ccc(Cl)cc2F)c2ccc(C#N)cc21 (racemic) [Example 78, (±)-5-Cyano-1-(4-chloro-2-fluoro-benzenesulphonyl)-3-(2-ethoxyphenyl)-3-(4-pyridin-4-yl-piperazin-1-yl)-2,3-dihydro-1H-indol-2-one]"
3,< 50,"COc1ccc(S(=O)(=O)N2C(=O)C(c3cccc(OC)c3OC)(N3CCN(c4ccncc4)CC3)c3cc(Cl)ccc32)c(OC)c1 (centres unmarked) [Example 31, 5-Chloro-1-(2,4-dimethoxy-benzenesulphonyl)-3-(2,3-dimethoxyphenyl)-3-(4-pyridin-4-yl-piperazin-1-yl)-1,3-dihydro-indol-2-one, HCl salt]"
4,50 to 500,"CCOc1ccccc1C1(N2CCN(c3ccncc3)CC2)C(=O)N(S(=O)(=O)c2ccc(F)cc2)c2ccc(C#N)cc21 (centres unmarked) [Example 15, 5-Cyano-3-(2-ethoxyphenyl)-1-(4-fluoro-benzenesulphonyl)-3-(4-pyridin-4-yl-piperazin-1-yl)-2,3-dihydro-1H-indol-2-one]"
5,50 to 500,"COc1ccc(S(=O)(=O)N2C(=O)C(c3ccccc3OC)(N3CCN(c4ccncc4)CC3)c3ccc(C)cc32)c(OC)c1 (centres unmarked) [Example 23, 1-(2,4-Dimethoxy-benzenesulphonyl)-3-(2-methoxyphenyl)-6-methyl-3-(4-pyridin-4-yl-piperazin-1-yl)-1,3-dihydro-indol-2-one]"
6,50 to 500,"CCOc1ccccc1C1(N2CCN(c3ccncc3)CC2)C(=O)N(S(=O)(=O)c2ccc(OC)cc2OC)c2ccc(-c3ccco3)cc21 (centres unmarked) [Example 47, 1-(2,4-Dimethoxy-benzenesulphonyl)-3-(2-ethoxyphenyl)-5-furan-2-yl-3-(4-pyridin-4-yl-piperazin-1-yl)-1,3-dihydro-indol-2-one]"
7,< 50,"CCOc1ccc(OC)cc1C1(N2CCCN(c3ccncc3)CC2)C(=O)N(S(=O)(=O)c2ccc(OC)cc2OC)c2ccc(C#N)cc21 (centres unmarked) [Example 60, 5-Cyano-1-(2,4-dimethoxy-benzenesulphonyl)-3-(2-ethoxy-5-methoxyphenyl)-3-(4-pyridin-4-yl-[1.4]diazepan-1-yl)-2,3-dihydro-1H-indol-2-one]"
8,< 50,"COc1ccc(S(=O)(=O)N2C(=O)C(c3cc(OC)ccc3OC)(N3CCN(c4ccncc4)CC3)c3cc(C#N)ccc32)cc1 (centres unmarked) [Example 63, 5-Cyano-3-(2,5-dimethoxyphenyl)-1-(4-methoxy-benzenesulphonyl)-3-(4-pyridin-4-yl-piperazin-1-yl)-2,3-dihydro-1H-indol-2-one]"
9,50 to 500,"COCc1ccccc1C1(N2CCN(c3ccncc3)CC2)C(=O)N(S(=O)(=O)c2ccc(OC)cc2OC)c2ccc(Cl)cc21 (centres unmarked) [Example 32, 5-Chloro-1-(2,4-dimethoxy-benzenesulphonyl)-3-(2-methoxymethylphenyl)-3-(4-pyridin-4-yl-piperazin-1-yl)-1,3-dihydro-indol-2-one]"

# — patent US8431567B2 (Abbott GmbH & Co. KG, priority 2006, dated 2013)
